Type in all cases: biochemical
Test [1] has as its target CDK4/cyclin D1 (Homo sapiens (Human), UniProt P11802). Kind of test: CDK4/Cyclin D1 enzymatic activity assay (Lance TR-FRET). The conditions noted are these: for pIC50: Table 2, 3 μM ATP, read-out: CDK4. The procedure:
A 384-well microtiter Lance TR-FRET (time-resolved-fluorescence energy transfer) endpoint assay was used for CDK4/cyclin D1 kinase activity measurements. The same assay was used for IC50 determination of small molecule inhibitors. In general, the kinase reactions were carried out in 30 μL volumes in the reaction solution containing the following: 2 uL compound (in […]), 18 uL CDK4/cyclin D1 in Assay Buffer (50 mM HEPES, pH 7.5, 5 mM MgCl2, 2 mM MnCl2, 1 mM DTT, 0.05% BSA, 0.02% Tween-20), 10 uL of the mixture of pRb152 and ATP. The final reaction mixture contains compound (inhibitor) with the concentration varying from 0.005-10 μM, 2% DMSO, 0.3 nM CDK4/cyclin D1, 175 nM pRb152, and 3 μM ATP (Amersham Pharmacia, Cat. No. 27-2056-01). All reactions were run at room temperature in 384-well white flat-bottom OptiPlates (Perkin Elmer, Cat. No. 6007290) for 60 min then were quenched by the addition of 10 μL of 120 mM EDTA. The signals were captured by the addition of 40 μL of the Detection Solution containing the following: Detection Buffer (50 mM HEPES, pH 7.5, 30 mM EDTA, 0.1% Triton x-100, 0.05% BSA), 70 ng/mL anti-phospho-pRb(S780) (Cell Signaling Technology, Cat. No. 9307S), 1 nM Lance Eu-W1024-Rabbit anti-IgG (Perkin Elmer, Cat. No. AD0082), and 20 nM SureLight™ Allophycocyanin-Streptavidin (Perkin Elmer, Cat. No. CR130-100). The resulted solutions were incubated at room temperature for 2 hours before read on the Evision Multilabel Reader (Perkin Elmer, Envision 2102-0010).
CDk4/cyclin D1 recombinant protein used in the enzymatic activity assay was prepared by coexpressing pDEST10-CDK4 (N-terminal His6) and pFastBacDual-GST-hCyclinDl viruses in Sf21 cells.
For orientation: TR-FRET usually uses a lanthanide donor and a delayed reading to cut background.

Test [2] concerns the target CDK1/cyclin B (Homo sapiens (Human), UniProt P06493). Kind of test: CDK1/Cyclin B enzymatic activity assay (IMAP-FP). Particulars: for pIC50: Table 2, 20 μM ATP, read-out: CDK1. The source says: A 384-well microtiter IMAP-FPT™ (Molecular Devices Trade Mark Technology) endpoint assay was used for CDK1/cyclin B kinase activity measurements. The same assay was used for IC50 determination of small molecule inhibitors.

Test [3] has as its target CDK2/cyclin A (Homo sapiens (Human), UniProt P24941). Kind of test: CDK2/Cyclin A enzymatic activity assay (IMAP-FP). Particulars: for pIC50: Table 2, read-out: CDK2.

The source of these data is patent US8962630B2, “Pyrrolopyrimidine compounds and their uses” (Novartis AG, priority 2008, dated 2015).

Structures are written as SMILES. pIC50: −log10 of the molar value. Where two headings read alike, the source gives them in different places.

Sequence of CDK4/cyclin D1 (P11802 whole entry): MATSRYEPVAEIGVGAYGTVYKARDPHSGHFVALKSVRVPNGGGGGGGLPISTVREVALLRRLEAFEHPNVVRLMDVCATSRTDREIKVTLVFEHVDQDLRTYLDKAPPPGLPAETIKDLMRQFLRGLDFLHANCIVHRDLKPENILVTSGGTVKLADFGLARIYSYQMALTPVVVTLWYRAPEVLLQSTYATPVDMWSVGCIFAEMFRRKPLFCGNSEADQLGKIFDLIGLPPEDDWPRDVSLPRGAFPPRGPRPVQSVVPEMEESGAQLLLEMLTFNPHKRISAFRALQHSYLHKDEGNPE
Sequence of CDK4/cyclin D1 (P24385 whole entry partner): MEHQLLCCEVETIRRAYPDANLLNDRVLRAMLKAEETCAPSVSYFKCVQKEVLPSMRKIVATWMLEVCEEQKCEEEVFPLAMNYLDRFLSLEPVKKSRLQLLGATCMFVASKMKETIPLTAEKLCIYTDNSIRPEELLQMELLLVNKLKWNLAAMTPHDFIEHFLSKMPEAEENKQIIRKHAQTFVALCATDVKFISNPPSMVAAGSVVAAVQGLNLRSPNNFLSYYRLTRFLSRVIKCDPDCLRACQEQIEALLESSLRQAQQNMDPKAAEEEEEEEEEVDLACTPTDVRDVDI
Sequence of CDK1/cyclin B (P06493 whole entry, species assumed): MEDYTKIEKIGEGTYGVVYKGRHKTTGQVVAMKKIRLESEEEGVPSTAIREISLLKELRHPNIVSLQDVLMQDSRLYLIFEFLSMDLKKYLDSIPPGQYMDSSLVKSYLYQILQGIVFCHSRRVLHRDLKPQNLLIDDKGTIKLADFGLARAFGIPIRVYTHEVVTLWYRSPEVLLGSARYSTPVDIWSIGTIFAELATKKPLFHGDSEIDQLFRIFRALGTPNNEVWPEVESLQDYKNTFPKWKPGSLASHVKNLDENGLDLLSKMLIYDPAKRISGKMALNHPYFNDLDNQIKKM
Sequence of CDK1/cyclin B (P14635 whole entry partner, species assumed): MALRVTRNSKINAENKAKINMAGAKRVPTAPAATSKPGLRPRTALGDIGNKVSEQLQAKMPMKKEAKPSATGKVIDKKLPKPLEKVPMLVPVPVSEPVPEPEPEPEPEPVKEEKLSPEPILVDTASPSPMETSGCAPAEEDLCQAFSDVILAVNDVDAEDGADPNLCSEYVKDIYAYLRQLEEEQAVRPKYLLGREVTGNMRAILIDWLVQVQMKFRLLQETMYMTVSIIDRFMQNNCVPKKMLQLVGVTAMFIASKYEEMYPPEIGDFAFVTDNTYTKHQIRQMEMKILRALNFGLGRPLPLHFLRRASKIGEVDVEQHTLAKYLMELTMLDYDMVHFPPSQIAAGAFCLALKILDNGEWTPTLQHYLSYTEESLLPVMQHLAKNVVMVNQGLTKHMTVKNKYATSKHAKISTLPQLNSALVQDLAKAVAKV

Turning to `CN(C)C(=O)c1cc2cnc(Nc3ccc(N4CCN(CCO)CC4)nn3)nc2n1C1CCCC1` [Example 37, 7-Cyclopentyl-2-{6-[4-(2-hydroxy-ethyl)-piperazin-1-yl]-pyridazin-3-ylamino}-7H-pyrrolo[2,3-d]pyrimidine-6-carboxylic acid dimethylamide], the pIC50 is 7.00 to 8.00 in test [1], < 4.82 in test [2] and < 4.82 in test [3].

For `CC1CN(Cc2ccc(Nc3ncc4cc(C(=O)N(C)C)n(C5CCCC5)c4n3)nc2)CCN1` (stereo not drawn) [Example 54, 7-Cyclopentyl-2-[5-(3-methyl-piperazin-1-ylmethyl)-pyridin-2-ylamino]-7H-pyrrolo[2,3-d]pyrimidine-6-carboxylic acid dimethylamide], the results for the pIC50 in test [1], in test [2] and in test [3] were 7.00 to 8.00, < 4.82 and < 4.82, respectively.

Turning to `CC(C)N1CCN(c2ccc(Nc3ncc4cc(C(=O)N(C)C)n(C5CCCC5)c4n3)nc2)CC1` [Example 63, 7-Cyclopentyl-2-[5-(4-isopropyl-piperazin-1-yl)-pyridin-2-ylamino]-7H-pyrrolo[2,3-d]pyrimidine-6-carboxylic acid dimethylamide], the figures for the pIC50 in test [1], in test [2] and in test [3] were 8.00 to 9.00, < 4.82 and < 4.82, respectively. Also, the IC50 in test [1] (Table 4, read-out: IC50 (μM) CDK4) was 0.008 µM; in test [2] (Table 4, read-out: IC50 (μM) CDK1), > 15 µM; in test [3] (Table 4, read-out: IC50 (μM) CDK2) it was > 15 µM.

With `CN(C)C(=O)c1cc2cnc(Nc3ccc(N4CCN(CCCO)CC4)cn3)nc2n1C1CCCC1` [Example 21, 7-Cyclopentyl-2-{5-[4-(3-hydroxy-propyl)-piperazin-1-yl]-pyridin-2-ylamino}-7H-pyrrolo[2,3-d]pyrimidine-6-carboxylic acid dimethylamide], the pIC50 is 8.00 to 9.00 in test [1], < 4.82 in test [2] and < 4.82 in test [3].

In the case of `CN(C)C(=O)c1cc2cnc(Nc3ccc(N4CCN(CC(N)=O)CC4)cn3)nc2n1C1CCCC1` [Example 10, 2-[5-(4-Carbamoylmethyl-piperazin-1-yl)-pyridin-2-ylamino]-7-cyclopentyl-7H-pyrrolo[2,3-d]pyrimidine-6-carboxylic acid dimethylamide], the figures for the pIC50 in test [1], in test [2] and in test [3] were 7.00 to 8.00, < 4.82 and < 4.82, respectively.

On to `CN(C)C(=O)c1cc2cnc(Nc3ccccn3)nc2n1C1CCCC1` [Example 1, 7-Cyclopentyl-2-(pyridin-2-ylamino)-7H-pyrrolo[2,3-d]pyrimidine-6-carboxylic acid dimethylamide], for which the values for the pIC50 in test [1], in test [2] and in test [3] were 6.00 to 7.00, < 4.82 and < 4.82, respectively.

For `CC(C)CCCN1CCN(c2ccc(Nc3ncc4cc(C(=O)N(C)C)n(C5CCCC5)c4n3)nc2)CC1` [Example 68, 7-Cyclopentyl-2-{5-[4-(4-methyl-pentyl)-piperazin-1-yl]-pyridin-2-ylamino}-7H-pyrrolo[2,3-d]pyrimidine-6-carboxylic acid dimethylamide], the pIC50 in test [1] was 8.00 to 9.00; in test [2] it was < 4.82; in test [3], < 4.82.

For the compound `CN(C)C(=O)c1cc2cnc(Nc3ccc(N4CCN(CC#N)CC4)cn3)nc2n1C1CCCC1` [Example 84, 2-[5-(4-Cyanomethyl-piperazin-1-yl)-pyridin-2-ylamino]-7-cyclopentyl-7H-pyrrolo[2,3-d]pyrimidine-6-carboxylic acid dimethylamide], the pIC50 was 7.00 to 8.00 in test [1], < 4.82 in test [2] and < 4.82 in test [3].

Regarding `CN(C)C(=O)c1cc2cnc(Nc3ccc(N4CCN(CC(C)(C)O)CC4)cn3)nc2n1C1CCCC1` [Example 71, 7-Cyclopentyl-2-{5-[4-(2-hydroxy-2-methyl-propyl)-piperazin-1-yl]-pyridin-2-ylamino}-7H-pyrrolo[2,3-d]pyrimidine-6-carboxylic acid dimethylamide], the pIC50 in test [1] was 7.00 to 8.00; in test [2] it was < 4.82; in test [3], < 4.82.

In the case of `COCCN1CCN(c2ccc(Nc3ncc4cc(C(=O)N(C)C)n(C5CCCC5)c4n3)nc2)CC1` [Example 14, 7-Cyclopentyl-2-{5-[4-(2-methoxy-ethyl)-piperazin-1-yl]-pyridin-2-ylamino}-7H-pyrrolo[2,3-d]pyrimidine-6-carboxylic acid dimethylamide], the pIC50 is 7.00 to 8.00 in test [1], < 4.82 in test [2] and < 4.82 in test [3].

With `CNC(=O)c1cc2cnc(Nc3ccc(N4CCNCC4)cn3)nc2n1C1CCCC1` [Example 58, 7-Cyclopentyl-2-(5-piperazin-1-yl-pyridin-2-ylamino)-7H-pyrrolo[2,3-d]pyrimidine-6-carboxylic acid methylamide], the pIC50 is 7.00 to 8.00 in test [1], < 4.82 in test [2] and < 4.82 in test [3].

Consider `CN(C)C(=O)c1cc2cnc(Nc3ccc(N4CCC(O)CC4)cn3)nc2n1C1CCCC1` [Example 20, 7-Cyclopentyl-2-(4-hydroxy-3,4,5,6-tetrahydro-2H-[1,3′]bipyridinyl-6′-ylamino)-7H-pyrrolo[2,3-d]pyrimidine-6-carboxylic acid dimethylamide], for which the pIC50 in test [1] is 7.00 to 8.00; in test [2], < 4.82; in test [3], < 4.82.

`CN(C)C(=O)c1cc2cnc(Nc3ccc(N4CCN(CC(F)(F)F)CC4)cn3)nc2n1C1CCCC1` [Example 25, 7-Cyclopentyl-2-{5-[4-(2,2,2-trifluoro-ethyl)-piperazin-1-yl]-pyridin-2-ylamino}-7H-pyrrolo[2,3-d]pyrimidine-6-carboxylic acid dimethylamide]: the pIC50 in test [1] is 7.00 to 8.00; in test [2], < 4.82; in test [3] it was < 4.82.

Consider `CN(C)C(=O)c1cc2cnc(Nc3ccc(N4CCN(CCOCCO)CC4)cn3)nc2n1C1CCCC1` [Example 33, 7-Cyclopentyl-2-(5-{4-[2-(2-hydroxy-ethoxy)-ethyl]-piperazin-1-yl}-pyridin-2-ylamino)-7H-pyrrolo[2,3-d]pyrimidine-6-carboxylic acid dimethylamide], for which the pIC50 in test [1] is 7.00 to 8.00; in test [2], < 4.82; in test [3], < 4.82.

Consider `CN(C)CC(=O)N1CCN(c2ccc(Nc3ncc4cc(C(=O)N(C)C)n(C5CCCC5)c4n3)nc2)CC1` [Example 88, 7-Cyclopentyl-2-{5-[4-(2-dimethylamino-acetyl)-piperazin-1-yl]-pyridin-2-ylamino}-7H-pyrrolo[2,3-d]pyrimidine-6-carboxylic acid dimethylamide], for which the pIC50 in test [1] is 8.00 to 9.00; in test [2], < 4.82; in test [3], < 4.82.

Turning to `CN(C)C(=O)c1cc2cnc(Nc3ccc(CN4CCN(C)C(=O)C4)cn3)nc2n1C1CCCC1` [Example 60, 7-Cyclopentyl-2-[5-(4-methyl-3-oxo-piperazin-1-ylmethyl)-pyridin-2-ylamino]-7H-pyrrolo[2,3-d]pyrimidine-6-carboxylic acid dimethylamide], the pIC50 in test [1] was 6.00 to 7.00; in test [2], < 4.82; in test [3], < 4.82.

For the compound `CC1CN(c2ccc(Nc3ncc4cc(C(=O)N(C)C)n(C5CCCC5)c4n3)nc2)CC(C)N1` (stereo not drawn) [Example 24, 7-Cyclopentyl-2-[5-(3,5-dimethyl-piperazin-1-yl)-pyridin-2-ylamino]-7H-pyrrolo[2,3-d]pyrimidine-6-carboxylic acid dimethylamide], the pIC50 in test [1] was 7.00 to 8.00; in test [2], < 4.82; in test [3] it was < 4.82.

As to `C[C@H]1CN(c2ccc(Nc3ncc4cc(C(=O)N(C)C)n(C5CCCC5)c4n3)nc2)CCN1CCO` [Example 82, 7-Cyclopentyl-2-{5-[(S)-4-(2-hydroxy-ethyl)-3-methyl-piperazin-1-yl]-pyridin-2-ylamino}-7H-pyrrolo[2,3-d]pyrimidine-6-carboxylic acid dimethylamide], the pIC50 is 7.00 to 8.00 in test [1], < 4.82 in test [2] and < 4.82 in test [3].

Turning to `C[C@@H]1CN(c2ccc(Nc3ncc4cc(C(=O)N(C)C)n(C5CCCC5)c4n3)nc2)CCN1CCO` [Example 81, 7-Cyclopentyl-2-{5-[(R)-4-(2-hydroxy-ethyl)-3-methyl-piperazin-1-yl]-pyridin-2-ylamino}-7H-pyrrolo[2,3-d]pyrimidine-6-carboxylic acid dimethylamide], the pIC50 was 7.00 to 8.00 in test [1], < 4.82 in test [2] and < 4.82 in test [3].

By IC50 is commonly meant the concentration that inhibits the measured activity by half.
